Assay results published in EP3381907A1, “SYMMETRICAL 2-AMINOPHENYL-BENZAZOLYL-5-ACETATE COMPOUNDS AND THEIR USE AS ANTI-HEPARANASE” (Leadiant Biosciences SA, priority 2017, dated 2018).
pIC50: −log10 of the molar value.

How the values were obtained:
[1] = system: U2OS (human osteosarcoma); experiment: Matrigel cell invasion assay, U2OS; assay type: cell-based; settings: Homo sapiens, test compound at 2.5 µM, 24 h pre-treatment, 24 h invasion
Experimental: (§1) Heparanase inhibitors were then evaluated for their activity on the invasive potential of HT1080 (human fibrosarcoma), U87MG (human glioblastoma astrocytoma) and U2OS (human osteosarcoma) human cell lines, using the Matrigel cell invasion assay which allows to assess the cell invasion ability of malignant and normal cells.
(§2) Invasion assay was performed using BioCoat cell culture inserts (BioCoat 8.0µm PET Membrane 24 Well Permeable Supports, Corning). Filters were coated with 100 µl of 300 µg/ml Matrigel dissolved in coating buffer (0.01 M Tris pH 8.0, 0.7% NaCl) (Becton-Dickinson Sciences). DMEM (Dulbecco's Modified Eagle's Medium) containing 5% FBS was added to the lower chambers. Cells were pre-treated with heparanase inhibitors for 24 h, detached and added to the upper chambers in media containing the inhibitors. Cells were allowed to invade for 24 h at 37°C in a CO2 incubator and then unmigrated cells were removed from the upper chamber with a cotton swab. The invading cells were fixed, stained with 0.1% crystal violet for 10 min at room temperature, photographed and counted under inverted microscope.
(§3) Test compounds were analyzed at fixed concentration (2.5 µM) for several fields, in duplicates. Activity of test compounds was compared to the reference compound. Activity of most interesting compound was confirmed in a second cell invasion assay. Data were expressed as the percent invasion with respect to cell migration through uncoated insert membrane (see Table 3 below)
(§4) Table 3. […] In Invasion assay, data were expressed as the percent invasion (range) with respect to cell migration through uncoated insert membrane. In Adhesion assay, data were expressed as the percent of adhesion with respect to the control (100%). • Legend • ++: 50-90% • + : < 50% • - : Not Active

heparanase = biological target: T1, heparanase (Homo sapiens, UniProt Q9Y251); experiment: AGA*IA assay: colorimetric fondaparinux cleavage assay for heparanase inhibition (WST-1); assay type: biochemical; settings: 2.5 nM heparanase, 100 µM fondaparinux, pH 5.0, 3 h at 37°C; class symbols
T1 sequence (Q9Y251 158-543 limits assumed): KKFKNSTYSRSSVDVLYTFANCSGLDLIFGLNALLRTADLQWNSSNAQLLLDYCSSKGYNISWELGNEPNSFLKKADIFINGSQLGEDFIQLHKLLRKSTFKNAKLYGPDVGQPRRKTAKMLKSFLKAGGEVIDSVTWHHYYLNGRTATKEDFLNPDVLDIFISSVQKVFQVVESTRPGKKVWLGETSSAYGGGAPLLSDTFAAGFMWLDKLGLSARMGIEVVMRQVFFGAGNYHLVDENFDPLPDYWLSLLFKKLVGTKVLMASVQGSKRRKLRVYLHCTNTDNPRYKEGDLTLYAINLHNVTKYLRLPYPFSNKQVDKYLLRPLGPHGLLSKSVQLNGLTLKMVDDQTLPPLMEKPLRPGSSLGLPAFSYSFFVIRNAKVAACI
T1 sequence (Q9Y251 36-109 limits assumed): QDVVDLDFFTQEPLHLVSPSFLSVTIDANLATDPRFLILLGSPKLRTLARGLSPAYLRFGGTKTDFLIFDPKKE
Experimental: All compounds were tested in a simple, accurate and robust microplate assay based on the cleavage of the synthetic heparin fragment, the pentasaccharide Fondaparinux (AGA*IA). This assay was originally developed by Hammond and coworkers [Hammond E, Li CP, Ferro V. Development of a colorimetric assay for heparanase activity suitable for kinetic analysis and inhibitor screening. Anal. Biochem. 396(1), 112-116 (2010)], where Fondaparinux corresponds to the methyl glycoside of the antithrombin III (ATIII)-activating pentasaccharide sequence of heparin. Fondaparinux is cleaved by heparanase to generate a reducing disaccharide, which can be quantitatively measured via a colorimetric or a fluorescence assay, the last by the fluorescent sensor polymer-H [Schiemann S, Lühn S, Alban S. Development of both colorimetric and fluorescence heparinase activity assays using fondaparinux as substrate. Anal. Biochem. 427(1), 82-89 (2012)].
The assay measures the appearance of the disaccharide product of heparanase-catalyzed fondaparinux cleavage colorimetrically using the tetrazolium salt WST-1. Assay was essentially performed as described with minor modifications. Briefly, NUNC ELISA 96-well plates were pre-treated with a solution of 4% BSA (bovin serum albumin) in phosphate-buffered saline containing 0.05% Tween 20 (PBST), for 2 h at 37°C, then washed three times with PBST, dried by tapping on paper towel and stored at -20°C. Before use, once again, the plates were washed with PBST.
Assay was carried out with 100 µl/well of assay solution containing 40 mM sodium acetate buffer (pH 5.0), 100 µM fondaparinux, 2.5 nM heparanase and serial dilutions of test compounds (tested in triplicate). Plates were sealed with adhesive tape and incubated, in the dark, for 3 h at 37°C, followed by development with 1.69 mM of the tetrazolium salt WST-1 solution in 0.1 M NaOH, for 1 h at 60°C. Then, the absorbance at 560 nm was measured through a microplate reader (Victor 3, Perkin Elmer).
Finally, the measurements were corrected by subtracting both the reagent background and the inner absorbance value of test compound.

[2] = system: HT1080 (human fibrosarcoma); experiment: Matrigel cell invasion assay, HT1080; assay type: cell-based; settings: HT-1080, HT1080, test compound at 2.5 µM, 24 h pre-treatment, 24 h invasion
Experimental: as §1, §2, §3, §4

MMP-9 = experiment: Real-Time quantitative PCR of MMP-9 mRNA in HT1080 cells; assay type: cell-based, human; settings: 24 h
Experimental: To evaluate the effect of heparanase inhibitors on the tumor transcription of genes encoding for proangiogenic factors, such as FGF1/2, VEGF, MMP-9, HSPE-1, the relative mRNA levels were analyzed by quantitative Real-Time Quantitative PCR. To perform the assay, HT1080 (human fibrosarcoma) cells were cultured in complete medium containing 10%FCS (fetal calf serum). Cells were plated in 24-well plates and treated at fixed concentration (i.e., highest non-toxic concentration) of test compounds. After 24 h, cells were detached, collected and total RNA extracted by RNeasy Mini Kit (QIAGEN). Following reverse transcription step, FGF1/2, VEGF, MMP-9, HSPE-1 mRNA levels, were quantified by qPCR using the advanced Universal SYBR Green Supermix (Bio Rad) and ABI PRISM 7900HT Thermal Cycler System (Perkin Elmer), according to the manufacturer's instructions. Appropriate no-RT and non-template controls were included in each 96-well PCR reaction, and dissociation analysis was performed at the end of each run to confirm the specificity of the reaction. Relative levels of RNA were calculated using the ddCt method. Standard curve and sample data were run in duplicate.
In the Table 5 a mean value is reported.

| SMILES | inhibition at 2.5 µM [1] | pIC50 (heparanase) | inhibition at 2.5 µM [2] | Gene Expression (% mRNA vs. control) MMP-9 (MMP-9; 2.5 uM) | Gene Expression (% mRNA vs. control) MMP-9 (MMP-9; 10.0 uM) |
| --- | --- | --- | --- | --- | --- |
| O=C(O)Cc1ccc2oc(-c3ccc(NC(=O)Nc4ccc(-c5nc6cc(CC(=O)O)ccc6o5)cc4F)c(F)c3)nc2c1 [Compound 20, 2,2'-(((Carbonylbis(azanediyl))bis(3-fluoro-4,1-phenylene))bis(benzo[d]oxazole-2,5-diyl))diacetic acid] | 50 to 90% | 6.31 to 7.30 | < 50% | ∼ 70% |  |
| O=C(O)CNC(=O)Cc1ccc2oc(-c3ccc(NC(=O)Nc4ccc(-c5nc6cc(CC(=O)NCC(=O)O)ccc6o5)cc4F)c(F)c3)nc2c1 [Compound 25, 2,2'-((2,2'-(((Carbonylbis(azanediyl))bis(3-fluoro-4,1-phenylene))bis(benzo[d]oxazole-2,5-diyl))bis(acetyl))bis(azanediyl))diacetic acid] | < 50% | 6.31 to 7.30 | 50 to 90% |  | ∼ 65% |
